Assay results from the CheMixHub viscosity set.
“And” between values parts separate entries of the source, which are not always exact repeats. Equal values may be shown once.

Assay: xn = mol fraction of the nth substance listed

Cc1cccc(C)c1 + CC(C)CO
308.15 K, 101 kPa
Conditions	viscosity [mPa·s]
x2 = 0.066	0.543
x2 = 0.1299	0.555
x2 = 0.2218	0.581
x2 = 0.3376	0.635
x2 = 0.4463	0.714
x2 = 0.5733	0.862
x2 = 0.6333	0.954
x2 = 0.7251	1.146
x2 = 0.8223	1.479
x2 = 0.9039	1.794
x2 = 0.9623	2.218

Nc1ccccc1Cl + CC(C)CO
viscosity [mPa·s], 101 kPa
Conditions	x1 = 0.0805	x1 = 0.1856	x1 = 0.2856	x1 = 0.3751	x1 = 0.4789	x1 = 0.5761	x1 = 0.6805	x1 = 0.7859	x1 = 0.8952
303.15 K	2.81	3	3.16	3.29	3.42	3.53	3.63	3.71	3.78
308.15 K	2.46	2.66	2.81	2.92	3.05	3.15	3.25	3.33	3.39
313.15 K	2.16	2.35	2.5	2.61	2.73	2.83	2.93	2.99	3.01
318.15 K	1.9	2.08	2.23	2.33	2.45	2.55	2.65	2.73	2.78

O=S1(=O)CCCC1 + CC(C)CO
viscosity [mPa·s], 101 kPa
Conditions	x1 = 0.0598	x1 = 0.1852	x1 = 0.259	x1 = 0.3891	x1 = 0.5066	x1 = 0.5903	x1 = 0.7089	x1 = 0.7888	x1 = 0.9464
303.15 K	2.606	2.541	2.648	2.978	3.416	3.853	4.763	5.677	6.708
308.15 K	2.261	2.222	2.319	2.611	3.017	3.414	4.229	5.037	7.667
313.15 K	1.971	1.954	2.045	2.309	2.681	3.043	3.778	4.493	6.786

CCCCn1cc[n+](C)c1.F[B-](F)(F)F + CC(C)O
101.33 kPa
Conditions	viscosity [mPa·s]
293.15 K, x1 = 0.8458	68.89
293.15 K, x1 = 0.9327	95.48
298.15 K, x1 = 0.1585	7.02
298.15 K, x1 = 0.9327	82.35
303.15 K, x1 = 0.2402	9.55
303.15 K, x1 = 0.9327	70.16
308.15 K, x1 = 0.2402	8.45
313.15 K, x1 = 0.2402	6.79
313.15 K, x1 = 0.3505	9.91
318.15 K, x1 = 0.3505	7.14
318.15 K, x1 = 0.4422	9.33
323.15 K, x1 = 0.5619	8.26

NCCCO + CC(C)O
Conditions	viscosity [mPa·s]
293.15 K, 101 kPa, x1 = 0.7002	19.25

O=S1(=O)CCCC1 + CC(C)O
viscosity [mPa·s], 101 kPa
Conditions	x1 = 0.0756	x1 = 0.1606	x1 = 0.2446	x1 = 0.3418	x1 = 0.4362	x1 = 0.5514	x1 = 0.6552	x1 = 0.754	x1 = 0.8754
303.15 K	1.634	1.705	1.823	2.067	2.386	2.94	3.662	4.701	6.713
308.15 K	1.438	1.489	1.616	1.837	2.128	2.626	3.274	4.19	5.992
313.15 K	–	1.324	1.442	1.644	1.908	2.356	2.945	3.754	5.332

CCCCCCCCCCCCCCCCCC(=O)O + CC(C)[C@@H]1CC[C@@H](C)C[C@H]1O
100 kPa, x1 = 0.1
Conditions	viscosity [mPa·s]
313.15 K	16.61
318.15 K	12.62
323.15 K	9.81

ClC(Cl)(Cl)c1ccccc1 + CC(Cl)(Cl)Cl
298.15 K, 101.33 kPa
Conditions	viscosity [mPa·s]
x2 = 0.157	1.93
x2 = 0.295	1.72
x2 = 0.423	1.532
x2 = 0.54	1.367
x2 = 0.647	1.222
x2 = 0.746	1.096
x2 = 0.837	0.9829
x2 = 0.921	0.8849

OC1COCOC1 + CC(O)CO
viscosity [mPa·s], 101 kPa
Conditions	x1 = 0.1001	x1 = 0.2022	x1 = 0.2993	x1 = 0.3988	x1 = 0.5	x1 = 0.5991	x1 = 0.7069	x1 = 0.8004	x1 = 0.9002
298.15 K	40.55	35.63	31.87	28.95	26.18	23.35	20.25	17.68	15.39
308.15 K	23.27	20.32	18.06	16.28	14.83	13.52	12.12	10.93	9.829
318.15 K	14.08	12.09	10.67	9.707	9.031	8.445	7.772	7.179	6.681

Cc1ccc(O)cc1 + CCC(=O)O
viscosity [mPa·s], 101 kPa
Conditions	x2 = 0.1344	x2 = 0.2589	x2 = 0.3745	x2 = 0.4823	x2 = 0.5828	x2 = 0.677	x2 = 0.7653	x2 = 0.8482	x2 = 0.9263
298.15 K	10.16	7.533	5.663	4.309	3.321	2.59	2.042	1.625	1.297
308.15 K	6.121	4.928	3.983	3.238	2.597	2.136	1.709	1.372	1.112
318.15 K	4.876	4.035	3.365	2.772	2.281	1.853	1.512	1.241	0.9766

Cc1cccc(C)c1 + CCC(C)O
308.15 K, 101 kPa
Conditions	viscosity [mPa·s]
x2 = 0.0658	0.532
x2 = 0.1295	0.544
x2 = 0.2112	0.563
x2 = 0.3085	0.592
x2 = 0.3828	0.622
x2 = 0.4366	0.653
x2 = 0.5058	0.696
x2 = 0.6047	0.792
x2 = 0.698	0.919
x2 = 0.8006	1.071
x2 = 0.9493	1.724

Nc1ccccc1Cl + CCC(C)O
viscosity [mPa·s], 101 kPa
Conditions	x1 = 0.0896	x1 = 0.1798	x1 = 0.2798	x1 = 0.3912	x1 = 0.4951	x1 = 0.5894	x1 = 0.6812	x1 = 0.7958	x1 = 0.8925
303.15 K	2.78	2.94	3.11	3.28	3.41	3.51	3.6	3.7	3.76
308.15 K	2.36	2.53	2.69	2.85	2.99	3.1	3.19	3.29	3.36
313.15 K	2.04	2.21	2.37	2.53	2.66	2.77	2.86	2.96	3.03
318.15 K	1.77	1.94	2.09	2.24	2.37	2.47	2.57	2.68	2.74

O=S1(=O)CCCC1 + CCC(C)O
viscosity [mPa·s], 101 kPa
Conditions	x1 = 0.0998	x1 = 0.1988	x1 = 0.2898	x1 = 0.3908	x1 = 0.4973	x1 = 0.5943	x1 = 0.7033	x1 = 0.78	x1 = 0.9045
303.15 K	2.151	–	2.299	2.55	2.933	3.428	4.266	5.138	7.383
308.15 K	1.858	1.884	2.015	2.246	2.597	3.049	3.799	4.576	6.529
313.15 K	1.615	1.655	–	1.993	2.316	2.728	3.407	4.097	5.806

Cc1ccc(O)cc1 + CCCC(=O)O
viscosity [mPa·s], 101 kPa
Conditions	x2 = 0.1119	x2 = 0.2208	x2 = 0.327	x2 = 0.4305	x2 = 0.5313	x2 = 0.6297	x2 = 0.7257	x2 = 0.8193	x2 = 0.9107
298.15 K	11.14	8.918	7.131	5.694	4.541	3.617	2.884	2.319	1.88
308.15 K	6.522	5.57	4.738	4.049	3.417	2.851	2.364	1.922	1.517
318.15 K	5.117	4.435	3.835	3.299	2.808	2.362	1.987	1.643	1.256

Cc1cccc(C)c1 + CCCCCCCCCC
viscosity [mPa·s], 101 kPa
Conditions	x1 = 0.0494	x1 = 0.1119	x1 = 0.2059	x1 = 0.2732	x1 = 0.4032	x1 = 0.4856	x1 = 0.6058	x1 = 0.7313	x1 = 0.8131	x1 = 0.9342
308.15 K	0.7221	0.6889	0.6779	0.6545	0.6148	0.5958	0.5728	0.5498	0.5392	0.5253
313.15 K	0.6818	0.6525	0.6364	0.6134	0.5805	0.5631	0.542	0.5191	0.5122	0.4972

Cc1cccc(C)c1 + CCCCCCCCCCCC
323.15 K, 100 kPa
Conditions	viscosity
x1 = 0.453	0.682 mPa·s and 0.683 mPa·s
x1 = 0.757	0.538 mPa·s and 0.539 mPa·s
